Blank lines part the entries; values can stand above or below the compound they belong to.
Assays:
[1] = Relaxivity on relaxometer (minispec pc120; 20 MHz; 40° C.); assay type: physicochemical; details: dist. water, pH 7.4, 20 MHz, 0-1 mmol/l
Protocol: (§1) Determination of Compatibility and Relaxivity of the Compounds According to the Invention
To determine the relaxivity, the relaxation times of the substances were measured in 4 different concentrations (0-1 mmol/l; dissolved in dist. water; pH 7.4) on a relaxometer (minispec pc120; 20 MHz; 40° C.). The calculation was performed from:
Δ(1/T1,2 -1/T1,2 blank value)/Δconc.=R1,2

lymph nodes (iliacal) = experiment: MR-imaging of VX-2 tumor-bearing rabbits: lymph nodes (iliacal); assay type: in vivo, rabbit; details: 0.1 mmol/kg i.v.
From the text: (§2) MR-Imaging Experiment of Tumor-bearing (VX-2 Carcinoma) Rabbits
(§3) Siemens magnetom® (1.5 tesla; 64 MHz), T1 -accentuated spin-echo technique: TR : 350 ms, TE : 15 ms. slice orientation: coronary, slice thickness: 3 mm, number of averages: 4 per layer, field of view: 150 mm, matrix: 256^2, 4-6 layers, 1 echo per imaging sequence.
(§4) Hare rabbit, Wulf, female,=4 kg of body weight (KGW) [n=3].
(§5) Carcinoma (VX-2), implanted intramuscularly about 3 weeks before the beginning of the test.
(§6) 0.05 and 0.1 mmol/kg of body weight i.v.

lymph node metastasis = experiment: MR-imaging of VX-2 tumor-bearing rabbits: lymph node metastasis; assay type: in vivo, rabbit; details: 0.1 mmol/kg i.v.
From the text: as §2, §3, §4, §5, §6

VX-2 carcinoma = experiment: MR-imaging of VX-2 tumor-bearing rabbits: VX-2 carcinoma; assay type: in vivo, rabbit; details: 0.1 mmol/kg i.v.
From the text: as §2, §3, §4, §5, §6

muscle = experiment: MR-imaging of VX-2 tumor-bearing rabbits: muscle; assay type: in vivo, rabbit; details: 0.1 mmol/kg i.v.
From the text: as §2, §3, §4, §5, §6

[2] = system: implanted tumor and lymph nodes; experiment: MR-imaging of VX-2 tumor-bearing rabbits: implanted tumor and lymph nodes; assay type: in vivo, rabbit; details: 0.1 mmol/kg i.v.
From the text: as §2, §3, §4, §5, §6

[3] = Compatibility in mice after i.v. administration, 7-day observation; details: mouse, in vivo, iv, 7 days observation, > if all animals tolerated the dose, < if all died
Protocol: as §1
The compatibility was examined preliminarily in mice (NMRI, Schering SPF, female, about 25 g). 0.5 mmol/kg of the substance in each case was administered intravenously to a mouse. The animal died, the dose was halved and correspondingly moved, otherwise the corresponding dose was administered to 2 additional mice. The period of observation was 7 days. The compatibility is indicated with > if all animals tolerated the corresponding dose, with < if all died.

[4] = 0 min p.i. (precontrast set to 1)

Compound: CC(=O)[O-].COc1ccc(-c2c3nc(c(-c4ccc(OC)c(S(=O)(=O)[O-])c4)c4ccc([nH]4)c(-c4ccc(OC)c(S(=O)(=O)[O-])c4)c4nc(c(-c5ccc(OC)c(S(=O)(=O)[O-])c5)c5ccc2[nH]5)C=C4)C=C3)cc1S(=O)(=O)[O-].[Mn+3].[Na+].[Na+].[Na+].[Na+] [Example 17 from EP 0336 879 A1]
Relaxivity R1 [1]: 9.2 I/mmol/s

Compound: Gd-DTPA
Relative signal intensity, lymph nodes (iliacal) (lymph nodes (iliacal); [4]): 1.00
Relative signal intensity, lymph nodes (iliacal) (lymph nodes (iliacal); 2 min p.i.): 1.50
Relative signal intensity, lymph nodes (iliacal) (lymph nodes (iliacal); 8 min p.i.): 1.32
Relative signal intensity, lymph nodes (iliacal) (lymph nodes (iliacal); 17 min p.i.): 1.20
Relative signal intensity, lymph nodes (iliacal) (lymph nodes (iliacal); 42 min p.i.): 1.24
Relative signal intensity, lymph nodes (iliacal) (lymph nodes (iliacal); 52 min p.i.): 1.17
Relative signal intensity, lymph nodes (iliacal) (lymph nodes (iliacal); 69 min p.i.): 1.11
Relative signal intensity, lymph nodes (iliacal) (lymph nodes (iliacal); 24 hours p.i.): 1.14
Relative signal intensity, lymph node metastasis (lymph node metastasis; [4]): 1.00
Relative signal intensity, lymph node metastasis (lymph node metastasis; 2 min p.i.): 1.61
Relative signal intensity, lymph node metastasis (lymph node metastasis; 8 min p.i.): 1.44
Relative signal intensity, lymph node metastasis (lymph node metastasis; 17 min p.i.): 1.36
Relative signal intensity, lymph node metastasis (lymph node metastasis; 42 min p.i.): 1.29
Relative signal intensity, lymph node metastasis (lymph node metastasis; 52 min p.i.): 1.20
Relative signal intensity, lymph node metastasis (lymph node metastasis; 69 min p.i.): 1.25
Relative signal intensity, lymph node metastasis (lymph node metastasis; 24 hours p.i.): 0.97
Relative signal intensity, VX-2 carcinoma (VX-2 carcinoma; [4]): 1.00
Relative signal intensity, VX-2 carcinoma (VX-2 carcinoma; 2 min p.i.): 1.50
Relative signal intensity, VX-2 carcinoma (VX-2 carcinoma; 8 min p.i.): 1.50
Relative signal intensity, VX-2 carcinoma (VX-2 carcinoma; 17 min p.i.): 1.48
Relative signal intensity, VX-2 carcinoma (VX-2 carcinoma; 42 min p.i.): 1.47
Relative signal intensity, VX-2 carcinoma (VX-2 carcinoma; 52 min p.i.): 1.42
Relative signal intensity, VX-2 carcinoma (VX-2 carcinoma; 69 min p.i.): 1.40
Relative signal intensity, VX-2 carcinoma (VX-2 carcinoma; 24 hours p.i.): 1.11
Relative signal intensity, muscle (muscle; [4]): 1.00
Relative signal intensity, muscle (muscle; 2 min p.i.): 1.20
Relative signal intensity, muscle (muscle; 8 min p.i.): 1.11
Relative signal intensity, muscle (muscle; 17 min p.i.): 1.10
Relative signal intensity, muscle (muscle; 42 min p.i.): 1.07
Relative signal intensity, muscle (muscle; 52 min p.i.): 1.02
Relative signal intensity, muscle (muscle; 69 min p.i.): 1.08
Relative signal intensity, muscle (muscle; 24 hours p.i.): 1.04
enhancement of tumors or metastases after about 60-90 minutes [2]: almost no enhancement of tumors or metastases was observed any longer
signal rise in implanted tumor and lymph nodes ([2]; lymph nodes on tumor-bearing and tumor-free side (iliacal and popliteal)): only in a brief, small signal rise
time until approximately the starting intensity was reached again ([2]; virtually all examined tissues, within about): 60 to 90 min

Compound: CC(=O)[O-].O=C([O-])c1cccc(-c2c3nc(c(-c4cccc(C(=O)[O-])c4)c4ccc([nH]4)c(-c4cccc(C(=O)[O-])c4)c4nc(c(-c5cccc(C(=O)[O-])c5)c5ccc2[nH]5)C=C4)C=C3)c1.[Mn+3] [Example 4 from EP 0336 879 A1]
Relaxivity R1 [1]: 8.8 I/mmol/s

Compound: O=C(O)COc1cccc(-c2c3nc(c(-c4cccc(OCC(=O)O)c4)c4ccc([nH]4)c(-c4cccc(OCC(=O)O)c4)c4nc(c(-c5cccc(OCC(=O)O)c5)c5ccc2[nH]5)C=C4)C=C3)c1.[Cl-].[Cl-].[Cl-].[Mn+3] [Example 2c, Manganese(III)-{5,10,15,20-tetrakis-[3-(carboxymethoxy)-phenyl]-porphyrin}-chloride]
MTD at 168 h [3]: > 500 µmol/kg
Relaxivity R1 [1]: 13 I/mmol/s

Compound: CC(=O)[O-].CC(=O)[O-].CC(=O)[O-].CCOC(=O)COc1ccc(-c2c3nc(c(-c4ccc(OCC(=O)OCC)c(OCC(=O)OCC)c4)c4ccc([nH]4)c(-c4ccc(OCC(=O)OCC)c(OCC(=O)OCC)c4)c4nc(c(-c5ccc(OCC(=O)OCC)c(OCC(=O)OCC)c5)c5ccc2[nH]5)C=C4)C=C3)cc1OCC(=O)OCC.[Mn+3] [Example 4c, Manganese(III)-{5,10,15,20-tetrakis-[3,4-bis-(ethoxycarbonylmethoxy)-phenyl]-porphyrin}-acetate]
MTD at 168 h [3]: ≥ 500 µmol/kg
Relaxivity R1 [1]: 11.6 I/mmol/s

Relaxivity R1 [1]: 8.6 I/mmol/s
Compound: Manganese (III){5,10,15,20tetrakis-{[4carboxylic acid(2,3-dihydroxy-1-hydroxymethylpropyl)-amidephenylporphyrinacetate [Example 2 from EP 0336 879 A1]
